This is an account of results in patent publication US20250114326A1, “POLAR MARINE-DERIVED MACROCYCLIC LACTAM COMPOUND, AND PREPARATION METHOD THEREFOR AND USE THEREOF” (RENJI HOSPITAL, SCHOOL OF MEDICINE, SHANGHAI JIAO TONG …, priority 2021, published 2025).

In this assay the test system is inflammatory cytokine IL-6. As to the kind of experiment: Inhibition of cytokine IL-6 in PMA-differentiated, LPS-treated THP-1 cells (Cytometric Bead Array, flow cytometry). In kind it is cell-based, human. As to conditions: PMA 160 nM 36 h, compound 2 h then LPS 24 h, IL-6 in culture solution by CBA, read-out: Half maximal inhibitory concentration (IC50) value on inflammatory cytokine IL-6. As for the experimental part:
Culture of THP-1 cells and treatment of THP-1 cells with test compounds in combination with LPS
THP-1 cells (from the Cell Bank of the Chinese Academy of Sciences) were cultured in RPMI-1640 medium containing 10% FBS in a 5% CO2 incubator at 37° C. 100 μL of a cell suspension in a complete culture medium containing antibiotics (100 μg/mL streptomycin and 100 U/mL penicillin) and PMA (final concentration: 160 nM) was added to each well in a 96-well plate (about 5×10^4 cells/well). After 36 h of treatment, the cells achieved adherent growth.
The PMA-containing medium was discarded and then the cells were washed with 1×PBS solution. Serum-free RPMI-1640 (2 mL) was added and the cells were treated for 12 h. The active compounds to be tested were diluted into five concentration gradients and added to each well for a 2-hour treatment. The culture solutions containing the compounds were retained and the cells were treated with a serum-free medium ([…]) containing LPS (1 mg/mL) for 24 h.
The content assay for cytokine IL-6 in the culture solution was performed according to the Human Inflammation Cytometric Bead Array (CBA) method in the manufacturer's instructions. After the above-mentioned cytokine levels were determined on the FACSCalibur flow cytometer, the FCAP Array software was used to analyze the results.

Where two headings read alike, the source gives them in different places.

Take `CC[C@H](C)C[C@]1(O)C(=O)C[C@@H](O)[C@@]2(C)C=C(C)[C@H](O2)/C(C)=C/C(C)=C/C[C@@H](CO)OC(=O)[C@H](OC)[C@@H](O)CNC1=O` [Compound 1, Somalactam A]: the IC50 (Homo sapiens) worked out at 10.54 ± 0.06 µM.
The same measure, in the same setting: in the case of `CC[C@H](C)C[C@@]1(O)C(=O)NC[C@H](O)[C@@H](OC)C(=O)OC[C@@H](O)C/C=C(\C)[C@H]2C(C)=C[C@]3(C)O[C@@H]4C[C@@]1(O)O[C@]4(C)[C@H]23` [Compound 2, Somalactam B] it was 11.1 ± 0.13 µM; in that of `CC[C@H](C)C[C@@]1(O)C(=O)NC[C@H](O)[C@@H](OC)C(=O)O[C@H](CO)C/C=C(\C)[C@@H]2C(C)=C[C@@]3(C)O[C@@H]4C[C@@]1(O)O[C@]4(C)[C@@H]23` [Compound 3, Somalactam C], 5.76 ± 1.18 µM; in that of `CC[C@H](C)C[C@@]1(O)C(=O)NC[C@H](O)[C@@H](OC)C(=O)O[C@@H]2CO[C@]3(C)C=C(C)[C@@H](/C(C)=C/[C@@]4(C)O[C@]1(O)C[C@H]4O)[C@@H]3C2` [Compound 4, Somalactam D], 9.12 ± 0.15 µM.
For the compound Tocilizumab [reference compound], the IC50 worked out at 9.22 ± 0.12 µM. For the same compound, the IC50 (listed as control drug) was determined as 6.02 ± 0.12 µM.
